# Measurements as given in patent US20250019387A1 (Frontier Medicines Corporation, priority 0001, published 2025).
# Target: KRAS G12C and cRAF (Ras-binding domain) interaction (Homo sapiens (Human), UniProt P01116, C118S/C51S/C80L/G12C)
# Experiment: Inhibition of KRAS G12C and cRAF binding (AlphaScreen)
# Conditions: GMPPNP-loaded KRAS G12C, 19-20 hours incubation with compound; read-out: IC50 (Inhibition of KRAS G12C and cRAF Binding)
# How it was run: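 Compounds (DMSO) preincubated 19-20 h at room temperature, then RBD with streptavidin donor and glutathione acceptor beads added in 25 mM Hepes pH 7.4, 150 mM NaCl, 5 mM MgCl2, 0.01% Triton X-100, 2% DMSO for 60-90 min. Emission 570 nm (excitation 680 nm); IC50 by 4-parameter fit. Counter-screen used biotin-AviTag-GST instead of RBD.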
# Chain of KRAS G12C and cRAF (Ras-binding domain) interaction (P01116 other isoform, or with tags, fused parts or gaps G12C/C51S/C80L/C118S): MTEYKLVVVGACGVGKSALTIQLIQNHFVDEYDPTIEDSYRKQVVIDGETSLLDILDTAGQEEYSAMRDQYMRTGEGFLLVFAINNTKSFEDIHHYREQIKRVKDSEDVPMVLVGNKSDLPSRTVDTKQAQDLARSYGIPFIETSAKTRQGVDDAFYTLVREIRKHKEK
row,SMILES,IC50
1,"Cc1nccc(/C=C/C(=O)N2CC(CN(C)c3nc(OC[C@@]45CCCN4C[C@H](F)C5)nc4c(F)c(-c5cccc6ccc(F)c(Cl)c56)ncc34)C2)n1 [Example 68, (E)-1-(3-(((7-(8-chloro-7-fluoronaphthalen-1-yl)-8-fluoro-2-(((2R,7aS)-2-fluorotetrahydro-1H-pyrrolizin-7a(5H)-yl)methoxy)pyrido[4,3-d]pyrimidin-4-yl)(methyl)amino)methyl)azetidin-1-yl)-3-(2-methylpyrimidin-4-yl)prop-2-en-1-one]",10 to 100 nM
2,"C=CC(=O)N1CC(F)(CN(C)c2nc(OC[C@@]34CCCN3C[C@H](F)C4)nc3c(F)c(-c4cccc5ccc(F)c(Cl)c45)ncc23)C1 [Example 60, 1-(3-(((7-(8-chloro-7-fluoronaphthalen-1-yl)-8-fluoro-2-(((2R,7aS)-2-fluorotetrahydro-1H-pyrrolizin-7a(5H)-yl)methoxy)pyrido[4,3-d]pyrimidin-4-yl)(methyl)amino)methyl)-3-fluoroazetidin-1-yl)prop-2-en-1-one]",100 to 500 nM
3,"CN(c1nc(OC[C@@H]2CCCN2C)nc2c1CCN(c1cccc3cccc(Cl)c13)C2)C1CCN(C(=O)/C=C/C(=O)O)C1 (stereo partly drawn) [Example 8, (E)-4-(3-((7-(8-chloronaphthalen-1-yl)-2-(((S)-1-methylpyrrolidin-2-yl)methoxy)-5,6,7,8-tetrahydropyrido[3,4-d]pyrimidin-4-yl)(methyl)amino)pyrrolidin-1-yl)-4-oxobut-2-enoic acid]",100 to 500 nM
4,"Cc1cc(/C=C/C(=O)N2CC(CN(C)c3nc(OC[C@@]45CCCN4C[C@H](F)C5)nc4c(F)c(-c5cccc6cccc(Cl)c56)ncc34)C2)nc(C)n1 [Example 275, (E)-1-(3-(((7-(8-chloronaphthalen-1-yl)-8-fluoro-2-(((2R,7aS)-2-fluorohexahydro-1H-pyrrolizin-7a-yl)methoxy)pyrido[4,3-d]pyrimidin-4-yl)(methyl)amino)methyl)azetidin-1-yl)-3-(2,6-dimethylpyrimidin-4-yl)prop-2-en-1-one]",100 to 500 nM
5,"C=CS(=O)(=O)C1CN(c2nc(OC[C@@H]3CCCN3C)nc3c2CCN(c2cccc4cccc(Cl)c24)C3)C1 [Example 50, (S)-7-(8-chloronaphthalen-1-yl)-2-((1-methylpyrrolidin-2-yl)methoxy)-4-(3-(vinylsulfonyl)azetidin-1-yl)-5,6,7,8-tetrahydropyrido[3,4-d]pyrimidine]",> 500 nM
6,CN(c1nc(OC[C@@]23CCCN2C[C@H](F)C3)nc2c(F)c(-c3cccc4ccc(F)c(Cl)c34)ncc12)[C@@H]1CCN(C(=O)/C=C/C2CNCCO2)C1 (stereo partly drawn) [Example 122],100 to 500 nM

# Same assay, conditions: additional exemplary compounds; KRAS G12C and cRAF binding; read-out: RAF1 RBD IC50
row,SMILES,IC50
1,CN(c1nc(OCC23CCCN2CCC3)nc2c(F)c(-c3cccc4cccc(Cl)c34)ncc12)[C@@H]1CCN(C(=O)/C=C/c2cn(C)nn2)C1,> 500 nM
2,C=CC(=O)N1CC[C@@H](N(CC(F)(F)F)c2nc(OC[C@@]34CCCN3C[C@H](F)C4)nc3c(F)c(-c4cccc5cccc(Cl)c45)ncc23)C1,> 500 nM
3,Cc1noc(/C=C/C(=O)NCCN(C)c2nc(OCC34CCCN3CCC4)nc3c2CCN(c2cccc4cccc(Cl)c24)C3)n1,100 to 500 nM
4,C=CC(=O)N1C[C@H](N(C)c2nc(OCC34CCCN3CCC4)nc3c2CCN(c2cccc4cccc(Cl)c24)C3)[C@H]1C,> 500 nM
5,CN(C)C/C=C/C(=O)N1CC[C@@H](N(C)c2nc(OC[C@@]34CCCN3C[C@H](F)C4)nc3c(F)c(-c4cccc5ccc(F)c(Cl)c45)ncc23)C1,10 to 100 nM
6,C=CC(=O)CN(C)c1nc(OC[C@@H]2CCCN2C)nc2c1CCN(c1cccc3ccccc13)C2,100 to 500 nM
7,C=CC(=O)N1CC[C@@H](N(C)c2nc(OC[C@@]34CCCN3C[C@H](F)C4)nc3c(F)c(-c4cccc5cccc(Cl)c45)ncc23)C1,10 to 100 nM
8,C=CC(=O)N1CC[C@H]2[C@@H]1CCN2c1nc(OCC23CCCN2CCC3)nc2c1CCN(c1cccc3cccc(Cl)c13)C2,> 500 nM
9,CN(c1nc(OCC23CCCN2CCC3)nc2c(F)c(-c3cccc4cccc(Cl)c34)ncc12)[C@@H]1CCN(C#N)C1,< 10 nM
